{"source": "patent US8476259B2", "about": "“Fasudil in combination therapies for the treatment of pulmonary arterial hypertension” (Asahi Kasei Pharma Corporation, priority 2005, dated 2013)", "origin": "cited, not measured here", "key": {"[1]": {"test_system": "patients with pulmonary hypertension", "details": "aerosolization"}, "[2]": {"test_system": "Rho-kinase", "details": "administered to rats"}, "[3]": {"test_system": "monocrotaline-induced PH in rats", "details": "for pulmonary arterial lesions: intravenous or oral treatment"}, "[4]": {"test_system": "chronically hypoxic rats", "details": "for high pulmonary arterial pressure: intravenous or oral treatment"}, "[5]": {"test_system": "chronic hypoxic mice", "details": "for development of chronic hypoxia-induced PH: intravenous or oral treatment"}, "[6]": {"details": "in vivo"}, "[7]": {"target": "Rho-kinase", "details": "read-out: K(i) value for Rho-kinase"}, "[8]": {"test_system": "patients with severe PAH", "details": "versus placebo"}, "[9]": {"test_system": "PAH", "details": "oral"}, "[10]": {"test_system": "rat models of systemic hypertension", "details": "oral"}, "[11]": {"test_system": "pulmonary hypertension in rats", "details": "for pulmonary vasodilation: spontaneous PH in fawn-hooded rats"}, "[12]": {"test_system": "patients with severe pulmonary hypertension", "details": "intravenous"}, "[13]": {"test_system": "patients with angiographically proven stable angina"}, "[14]": {"test_system": "spontaneously hypertensive rats", "details": "rat, in vivo"}, "[15]": {"test_system": "rats injected with IL-6", "details": "simultaneous treatment"}, "[16]": {"test_system": "patients with Raynaud's phenomenon and systemic sclerosis", "details": "human, in vivo"}, "[17]": {"test_system": "progressive pulmonary arterial hypertension", "details": "two experimental models"}, "[18]": {"details": "inhaled, monocrotaline-induced PH, chronically hypoxic rats"}, "[19]": {"details": "all 20 patients, 100 mg 3 times a day, 2 weeks"}, "[20]": {"details": "subgroup (n=8) with well-developed collaterals"}}, "note": "pKi: −log10 of the molar value. Where two headings read alike, the source gives them in different places.", "data": [{"smiles": "CCCCC[C@H](O)/C=C/[C@@H]1[C@H]2C/C(=C/CCCC(=O)O)O[C@H]2C[C@H]1O", "note": "[prostacyclin]", "values": [{"measurement": "duration of effects", "setting": "[1]", "result": 15, "unit": "min"}, {"measurement": "inhibitory effect on Rho-kinase", "setting": "[2]", "result": "lack the inhibitory effect on Rho-kinase"}]}, {"smiles": "CCCc1nn(C)c2c(=O)[nH]c(-c3cc(S(=O)(=O)N4CCN(C)CC4)ccc3OCC)nc12", "note": "[sildenafil]", "values": [{"measurement": "survival rate", "setting": "[3]; PH induced by monocrotaline injection", "result": "improves survival rate"}, {"measurement": "pulmonary arterial pressure", "setting": "[4]; sildenafil, chronic hypoxic rats", "result": "reduces"}, {"measurement": "right ventricular hypertrophy", "setting": "[5]; chronic hypoxic mice", "result": "reduces right ventricular hypertrophy"}]}, {"smiles": "Cc1cc2c(cc1CC(=O)c1sccc1S(=O)(=O)Nc1onc(C)c1Cl)OCO2", "note": "[sitaxsentan]", "values": [{"measurement": "decrease in pulmonary vascular resistance", "setting": "[6]", "result": 30, "unit": "%"}, {"measurement": "six minute walk test", "setting": "[6]", "result": "improvement"}]}, {"smiles": "Cc1cncc2cccc(S(=O)(=O)N3CCCNC[C@@H]3C)c12", "note": "[H-1152P, (S)-(+)-2-methyl-1-[(4-methyl-5-isoquinoline)sulfonyl]-homopiperazine]", "values": [{"measurement": "pKi", "setting": "[7]", "result": 8.80}]}, {"smiles": "CC#CCC(C)[C@H](O)/C=C/[C@@H]1[C@H]2C/C(=C/CCCC(=O)O)C[C@H]2C[C@H]1O", "note": "(some centres unmarked) [iloprost]", "values": [{"measurement": "exercise capacity", "setting": "[8]", "result": "improved exercise capacity"}]}, {"smiles": "COc1ccccc1Oc1c(NS(=O)(=O)c2ccc(C(C)(C)C)cc2)nc(-c2ncccn2)nc1OCCO", "note": "[bosentan]", "values": [{"measurement": "liver toxicity", "setting": "higher dose", "result": "liver toxicity occurred with the higher dose"}, {"measurement": "six minute walk test", "setting": "whole group, greater improvement at higher doses", "result": "improved"}]}, {"smiles": "CC#CCC(C)[C@H](O)/C=C/[C@@H]1[C@H]2c3cccc(CCCC(=O)O)c3O[C@H]2C[C@H]1O", "note": "(mixture of isomers) [beraprost]", "values": [{"measurement": "benefit in PAH over time", "setting": "[9]", "result": "benefit in a study in PAH at 3 and 6 months but not at 9 or 12 months"}, {"measurement": "inhibitory effect on Rho-kinase", "setting": "[2]", "result": "lack the inhibitory effect on Rho-kinase"}]}, {"smiles": "C[C@@H](N)[C@H]1CC[C@H](C(=O)Nc2ccncc2)CC1", "note": "[Y-27632]", "values": [{"measurement": "hypotensive effect", "setting": "[10]; normotensive rats", "result": "smaller transient effect"}, {"measurement": "hypotensive effect", "setting": "[10]; rat models of systemic hypertension", "result": "potent hypotensive effects"}, {"measurement": "pulmonary arterial lesions", "setting": "[3]", "result": "reduces pulmonary arterial lesions"}, {"measurement": "elevated pulmonary artery pressure, acute effect", "setting": "[4]; intravenous", "result": "nearly normalized the elevated pulmonary artery pressure"}, {"measurement": "high pulmonary arterial pressure", "setting": "[4]", "result": "nearly normalizes"}, {"measurement": "mean pulmonary arterial pressure", "setting": "[11]; 5 minutes of inhaled Y-27632", "result": "decreased mean pulmonary arterial pressure without reducing mean systemic arterial pressure"}, {"measurement": "duration of hypotensive effect on hypoxic pulmonary hypertension", "setting": "[11]; inhaled", "result": "at least 5 hrs"}, {"measurement": "pulmonary vasodilation", "setting": "[11]; [18]", "result": "sustained and selective pulmonary vasodilation"}, {"measurement": "development of chronic hypoxia-induced PH", "setting": "[5]", "result": "attenuates"}]}, {"smiles": "O=S(=O)(c1cccc2cnccc12)N1CCCNCC1", "note": "[fasudil, 1-(5-isoquinolinesulfonyl)-homopiperazine]", "values": [{"measurement": "pulmonary arterial lesions", "setting": "[3]", "result": "reduces pulmonary arterial lesions"}, {"measurement": "high pulmonary arterial pressure", "setting": "[4]", "result": "nearly normalizes"}, {"measurement": "mean pulmonary arterial pressure", "setting": "[11]; inhaled fasudil, monocrotaline-induced PH, spontaneous PH, chronically hypoxic rats", "result": "selective mean pulmonary arterial pressure reductions"}, {"measurement": "pulmonary vasodilation", "setting": "[11]; [18]", "result": "sustained and selective pulmonary vasodilation"}, {"measurement": "development of chronic hypoxia-induced PH", "setting": "[5]", "result": "attenuates"}, {"measurement": "pulmonary vascular resistance", "setting": "[12]", "result": "significantly reduced"}, {"measurement": "side effects", "setting": "[12]", "result": "without side effects"}]}, {"smiles": "COc1cccc(CCc2ccccc2OCC(CN(C)C)OC(=O)CCC(=O)O)c1", "note": "(centres unmarked) [sarpogrelate, (φ-amino-alkoxy)phenyl-ethylethylbenzene]", "values": [{"measurement": "pulmonary vascular remodeling, right side heart failure and mortality", "setting": "[3]; immediately following monocrotaline injection", "result": "suppressed the severe pulmonary vascular remodeling and right side heart failure and reduced mortality"}, {"measurement": "reversal of established pulmonary hypertension", "setting": "[3]; late treatment", "result": "failed to reverse established pulmonary hypertension"}, {"measurement": "number of proliferating cell nuclear antigen-positive cells", "setting": "[3]; rat, in vivo", "result": "reduced"}, {"measurement": "severity of pulmonary hypertension (medial thickness of small pulmonary arteries and right ventricle/left ventricle and septum ratio)", "setting": "[3]; rat, in vivo", "result": "reduced"}, {"measurement": "thickening of the alveolar walls and interstitial inflammatory cell infiltration", "setting": "[3]; rat, in vivo", "result": "reduced"}, {"measurement": "SAS score", "setting": "[13]; [19]", "result": "significantly increased"}, {"measurement": "exercise time to the onset of 0.1-mV ST depression", "setting": "[13]; [19]", "result": "prolonged"}, {"measurement": "all parameters", "setting": "[13]; patients (n=12) without well-developed collaterals", "result": "not significantly changed"}, {"measurement": "SAS score", "setting": "[13]; [20]", "result": "6.2±1.3", "unit": "METS"}, {"measurement": "increase of double product at the onset of 0.1-mV ST depression", "setting": "[13]; [20]", "result": 15, "unit": "%"}, {"measurement": "time to the onset of 0.1-mV ST depression", "setting": "[13]; [20]", "result": "295 ± 127", "unit": "s"}, {"measurement": "systolic blood pressure or heart weight", "setting": "[14]", "result": "no effect"}, {"measurement": "IL-6-induced increase in medial thickness of small pulmonary arteries and right ventricular hypertrophy", "setting": "[15]", "result": "prevented"}, {"measurement": "respiratory failure and mean pulmonary arterial pressure", "setting": "[16]", "result": "significantly decreased"}]}, {"smiles": "Cc1ccc(NC(=O)c2ccc(CN3CCN(C)CC3)cc2)cc1Nc1nccc(-c2cccnc2)n1", "note": "[Gleevec]", "values": [{"measurement": "lung vascular remodeling, pulmonary hypertension and right heart hypertrophy", "setting": "[17]", "result": "virtually complete reversal"}]}]}
